The test system of assay [1] is OPM-2 human multiple myeloma cell line. Nature of the assay: Cell Viability Assay (OPM-2 10 FBS). Type of assay: cell-based. The settings on record: OPM-2 cells, CellTiter-Glo. A digest of the protocol: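 Plated at 3000 cells/well in 10% FBS complete medium, the cells received a serial compound dilution series and incubated 16 h at 37 °C with 5% CO2. CellTiter-Glo was then added; IC50 values were fitted with a logistic 4-parameter model.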

Assay [2] addresses T1, Mcl-1/Bim interaction, recombinant human Mcl-1 (171-327) (Homo sapiens, UniProt Q07820).
T1 construct: made in house
Nature of the assay: Cell free Mcl-1: Bim Affinity Assay (Mcl-1 HTRF). In kind it is binding. In a few lines: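 Displacement of biotinylated Bim 51-76 peptide is followed by TR-FRET. Incubation runs overnight. Duplicate points are fitted with a four-parameter sigmoid to yield IC50.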

Where [3] appears, read: Homo sapiens, OPM-2, 16 h, 16 h.
The mark [4] stands for this setting: TR-FRET, 0.1 nM Mcl-1 (171-327), 0.05 nM biotin-Bim (51-76).
[5] abbreviates: cell free Mcl-1:Bim TR-FRET, recombinant human Mcl-1 (171-327).
Setting [6] is: Homo sapiens, OPM-2, 16 h, 16 h incubation.

Here are results for 21 molecules from US12091425B2 (AMGEN INC., priority 2016, dated 2024).

T1 sequence (Q07820 171-327): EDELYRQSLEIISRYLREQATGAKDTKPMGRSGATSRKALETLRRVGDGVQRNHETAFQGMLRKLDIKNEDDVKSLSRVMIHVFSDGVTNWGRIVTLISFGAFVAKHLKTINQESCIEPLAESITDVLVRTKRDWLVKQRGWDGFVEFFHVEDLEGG

Consider `COC1CN(C(=O)CO[C@H]2/C=C/C[C@H](C)[C@@H](C)S(=O)(=O)NC(=O)c3ccc4c(c3)N(C[C@@H]3CC[C@H]32)C[C@@]2(CCCc3cc(Cl)ccc32)CO4)C1` [Example 307, (1S,3′R,6′R,7′S,8′E,11′S,12′R)-6-chloro-7′-(2-(3-methoxy-1-azetidinyl)-2-oxoethoxy)-11′,12′-dimethyl-3,4-dihydro-2H,15′H-spiro[naphthalene-1,22′-[20]oxa[13]thia[1,14]diazatetracyclo[14.7.2.0^3,6.0^19,24]pentacosa [8,16,18,24]tetraen]-15′-one 13′,13′-dioxide], for which the values for the IC50 in assay [1] (setting [3]) and in assay [2] (setting [4]) were 302 nM and 0.127 nM, respectively.
For the molecule `CC[C@@H]1CC/C=C/[C@H](O)[C@@H]2CC[C@H]2CN2C[C@@]3(CCCc4cc(Cl)ccc43)COc3cc(Cl)c(cc32)C(=O)NS1(=O)=O` [Example 657, (1S,3′R,6′R,7′S,8′E,12′R)-6,17′-dichloro-12′-ethyl-7′-hydroxy-3,4-dihydro-2H,15′H-spiro[naphthalene-1,22′-[20]oxa[13]thia[1,14]diazatetracyclo[14.7.2.0^3,6.0^19,24]pentacosa[8,16,18,24]tetraen]-15′-one 13′,13′-dioxide], the IC50 in assay [1] (setting [3]) came out at 24700 nM; in assay [2] (setting [5]), 11.2 nM.
For `O=C1NS(=O)(=O)N2CCC[C@@H]2C/C=C/[C@H](O)[C@@H]2CC[C@H]2CN2C[C@@]3(CCCc4cc(Cl)ccc43)COc3ccc1cc32` [Example 347, (1S,3′R,6′R,7′S,8′E,11R)-6-chloro-7′-hydroxy-3,4-dihydro-2H,18′H-spiro[naphthalene-1,25′-[23]oxa[16]thia[1,15,17]triazapentacyclo[17.7.2.0^3,6.0^11,15.0^22,27]octacosa[8,19,21,27]tetraen]-18′-one 16′,16′-dioxide], the IC50 in assay [1] (16 h) turned out to be 5550 nM; in assay [2] (setting [4]), 7.22 nM.
As to `COC1CC=CC(O)C2CCC2CN2CC3(CCCc4cc(Cl)ccc43)COc3ccc(cc32)C(=O)NS(=O)(=O)C1CC1CCCO1` (single isomer, unassigned) [Example 638], the IC50 in assay [1] (setting [3]) came to 131 nM; in assay [2] (setting [5]), 0.243 nM.
Take `CC(C)OC(=O)CC1C(C)CC=CC(O)C2CCC2CN2CC3(CCCc4cc(Cl)ccc43)COc3ccc(cc32)C(=O)NS1(=O)=O` (single isomer, unassigned) [Example 567]: the IC50 in assay [1] (16 h) amounted to 4510 nM; in assay [2] (setting [5]), 3.69 nM.
As to `CCN1C(C)C/C=C\[C@H](O)[C@@H]2CC[C@H]2CN2C[C@@]3(CCCc4cc(Cl)ccc43)COc3ccc(cc32)C(=O)NS1(=O)=O` (single isomer, unassigned) [Example 58], the half-maximal inhibitory concentration (IC50) in assay [1] (16 h) came to 1180 nM; in assay [2] (setting [4]), 0.994 nM.
Turning to `CO[C@H]1/C=C/CCC(CCC(=O)N(C)C)S(=O)(=O)NC(=O)c2ccc3c(c2)N(C[C@@H]2CC[C@H]21)C[C@@]1(CCCc2cc(Cl)ccc21)CO3` (single isomer, unassigned) [Example 622], the IC50 in assay [1] (16 h) came to 257 nM; in assay [2] (setting [5]) it was 0.224 nM.
Regarding `CO[C@H]1/C=C/CCN(C)S(=O)(=O)NC(=O)c2ccc3c(c2)N(C[C@@H]2CC[C@H]21)C[C@@]1(CCCc2cc(Cl)ccc21)CO3` (single isomer, unassigned) [Example 47], the half-inhibitory concentration (IC50) was determined as 1280 nM in assay [1] (setting [3]) and 0.629 nM in assay [2] (setting [4]).
For `C[C@@H]1/C=C/[C@H](O)[C@@H]2CC[C@H]2CN2C[C@@]3(CCCc4cc(Cl)ccc43)COc3ccc(cc32)C(=O)NS(=O)(=O)[C@H](C)C1` [Example 1015, (1S,3′R,6′R,7′S,8′E,10′S,12′R)-6-chloro-7′-hydroxy-10′,12′-dimethyl-3,4-dihydro-2H,15′H-spiro[naphthalene-1,22′-[20]oxa[13]thia[1,14]diazatetracyclo[14.7.2.0^3,6.0^19,24]pentacosa [8,16,18,24]tetraen]-15′-one 13′,13′-dioxide], the half-maximal inhibitory concentration (IC50) in assay [1] (setting [6]) was 235 nM; in assay [2] (setting [4]) it was 0.275 nM.
As to `CN(C)C(=O)C[C@@H]1CC/C=C/[C@H](O)[C@@H]2CC[C@H]2CN2C[C@@]3(CCCc4cc(Cl)ccc43)COc3ccc(cc32)C(=O)NS1(=O)=O` (single isomer, unassigned) [Example 621], the concentration for half-maximal inhibition (IC50) in assay [1] (16 h) turned out to be 3670 nM; in assay [2] (setting [5]), 0.225 nM.
With `C[C@@H]1[C@@H](C)C/C=C/[C@H](OCCNC2COC2)[C@@H]2CC[C@H]2CN2C[C@@]3(CCCc4cc(Cl)ccc43)COc3ccc(cc32)C(=O)NS1(=O)=O` [Example 522, (1S,3′R,6′R,7′S,8′E,11′5,12′R)-6-chloro-11′,12′-dimethyl-7′-(2-(3-oxetanylamino)ethoxy)-3,4-dihydro-2H,15′H-spiro[naphthalene-1,22′-[20]oxa[13]thia[1,14]diazatetracyclo[14.7.2.0^3,6.0^19,24]pentacosa [8,16,18,24]tetraen]-15′-one 13′,13′-dioxide 2,2,2-trifluoroacetic Acid], the IC50 in assay [1] (setting [3]) is 152 nM; in assay [2] (setting [5]), 0.284 nM.
On to `CO[C@H]1/C=C/[C@H](C)[C@H](C)[C@@H](C)S(=O)(=O)NC(=O)c2ccc3c(c2)N(C[C@@H]2CC[C@H]21)C[C@@]1(CCCc2cc(Cl)ccc21)CO3` [Example 1047, (1S,3′R,6′R,7′S,8′E,10′S,11′S,12′R)-6-chloro-7′-methoxy-10′,11′,12′-trimethyl-3,4-dihydro-2H,15′H-spiro[naphthalene-1,22′-[20]oxa[13]thia[1,14]diazatetracyclo[14.7.2.0^3,6.0^19,24]pentacosa [8,16,18,24]tetraen]-15′-one 13′,13′-dioxide], for which the IC50 in assay [1] (setting [6]) stood at 300 nM; in assay [2] (setting [4]), 0.424 nM.
Consider `COCCN1[C@@H](C)C/C=C/[C@H](OC)[C@@H]2CC[C@H]2CN2C[C@@]3(CCCc4cc(Cl)ccc43)COc3ccc(cc32)C(=O)NS1(=O)=O` [Example 27, (1S,3′R,6′R,7′S,8′E,11′S)-6-chloro-7′-methoxy-12′-(2-methoxyethyl)-11′-methyl-3,4-dihydro-2H,15′H-spiro[naphthalene-1,22′-[20]oxa[13]thia[1,12,14]triazatetracyclo[14.7.2.0^3,6.0^19,24]pentacosa[8,16,18,24]tetraen]-15′-one 13,13′-dioxide], for which the concentration for half-maximal inhibition (IC50) in assay [1] (setting [3]) stood at 970 nM; in assay [2] (setting [4]) it was 0.422 nM.
As to `Cn1cnc(CO[C@H]2/C=C/C[C@H]3CCC[C@@H]3S(=O)(=O)NC(=O)c3ccc4c(c3)N(C[C@@H]3CC[C@H]32)C[C@@]2(CCCc3cc(Cl)ccc32)CO4)n1` (single isomer, unassigned) [Example 329], the 50% inhibitory concentration (IC50) in assay [1] (16 h) worked out at 3480 nM; in assay [2] (setting [4]), 2.58 nM.
Turning to `O=C1NS(=O)(=O)[C@H]2C[C@@H](CC[C@H](O)[C@@H]3CC[C@H]3CN3C[C@@]4(CCCc5cc(Cl)ccc54)COc4ccc1cc43)C2` [Example 101, (1S,3′R,6′R,7′S,10′S,12′S)-6-chloro-7′-hydroxy-3,4-dihydro-2H,15′H-spiro[naphthalene-1,22′-[20]oxa[13]thia[1,14]diazapentacyclo[14.7.2.1^10,120^3,6.0^19,24]hexacosa[16,18,24]trien]-15′-one 13′,13′-dioxide], the IC50 came out at 13000 nM in assay [1] (setting [3]) and 2.58 nM in assay [2] (setting [4]).
Regarding `C[C@@H]1CC(=O)NC[C@@H]2CC[C@H]2CN2C[C@@]3(CCCc4cc(Cl)ccc43)COc3ccc(cc32)C(=O)NS(=O)(=O)[C@@H]1C` (single isomer, unassigned) [Example 151], the half-inhibitory concentration (IC50) in assay [1] (16 h) stood at 9170 nM; in assay [2] (setting [4]) it was 3.56 nM.
With `C[C@@H]1[C@@H](C)C/C=C/[C@H](OCCN2CCOC2=O)[C@@H]2CC[C@H]2CN2C[C@@]3(CCCc4cc(Cl)ccc43)COc3ccc(cc32)C(=O)NS1(=O)=O` [Example 729, (1S,3′R,6′R,7′S,8′E,11′S,12′R)-6-chloro-11′,12′-dimethyl-7′-(2-(2-oxo-1,3-oxazolidin-3-yl)ethoxy)-3,4-dihydro-2H,15′H-spiro[naphthalene-1,22′-[20]oxa[13]thia[1,14]diazatetracyclo[14.7.2.0^3,6.0^19,24]pentacosa [8,16,18,24]tetraen]-15′-one-13′, 13′-dioxide], the half-maximal inhibitory concentration (IC50) came out at 118 nM in assay [1] (setting [3]) and 0.311 nM in assay [2] (setting [5]).
For the molecule `COCC[C@H]1C[C@H](C)/C=C/[C@H](O)[C@@H]2CC[C@H]2CN2C[C@@]3(CCCc4cc(Cl)ccc43)COc3ccc(cc32)C(=O)NS1(=O)=O` (single isomer, unassigned) [Example 479], the IC50 in assay [1] (16 h) came out at 8120 nM; in assay [2] (setting [5]) it was 5.37 nM.
Consider `CN(C)C(=O)CC[C@@H]1CC/C=C/[C@H](O)[C@@H]2CC[C@H]2CN2C[C@@]3(CCCc4cc(Cl)ccc43)COc3ccc(cc32)C(=O)NS1(=O)=O` (single isomer, unassigned) [Example 618], for which the half-inhibitory concentration (IC50) in assay [1] (16 h) was 607 nM; in assay [2] (setting [5]), 0.172 nM.
Regarding `CN(C)S(=O)(=O)CCO[C@@H]1/C=C/CCCS(=O)(=O)NC(=O)c2ccc3c(c2)N(C[C@@H]2CC[C@H]21)C[C@@]1(CCCc2cc(Cl)ccc21)CO3` [Example 219, 2-(((1S,3′R,6′R,7′R,8′E)-6-chloro-13′,13′-dioxido-15′-oxo-3,4-dihydro-2H-spiro[naphthalene-1,22′-[20]oxa[13]thia[1,14]diazatetracyclo[14.7.2.0^3,6.0^19,24]pentacosa [8,16,18,24]tetraen]-7′-yl)oxy)-N,N-dimethylethanesulfonamide], the IC50 in assay [1] (setting [3]) is 1830 nM; in assay [2] (setting [4]), 2.4 nM.
Consider `O=C1NS(=O)(=O)[C@H](CC2CCOCC2)CC/C=C/[C@H](O)[C@@H]2CC[C@H]2CN2C[C@@]3(CCCc4cc(Cl)ccc43)COc3ccc1cc32` (single isomer, unassigned) [Example 186], for which the half-maximal inhibitory concentration (IC50) in assay [1] (16 h) amounted to 4660 nM; in assay [2] (setting [4]), 7.91 nM.
